Experimental findings from patent publication US20090074761A1, “Therapeutic beta-glucan combinations” (priority 2007, published 2009) are described below.

Series [1] deals with SKOV-3 tumors. Description: SKOV-3 xenograft in ICR SCID mice, i.v. therapy for 4 weeks (FIG. 3). The class given is in vivo, mouse. Conditions: 1.2 mg β-glucan twice weekly, 0.2 mg bevacizumab every third day, i.v. 4 weeks; start 300 mm^3. The text has this: After SKOV-3 cell s.c. implantation, tumors were allowed to grow for over 17 days until they were 300 mm^3. […] Mice were sacrificed when the tumors reached 15 mm in diameter.

In series [2] the test system is SKOV-3 tumors. The series can be described thus: tumor blood vessel development, anti-CD31 staining of tumor sections (FIG. 6). It counts as in vivo, mouse. Conditions: anti-CD31-biotin staining, compared to PBS or β-glucan alone. The text has this:
To observe tumor blood vessel development after anti-VEGF mAb therapy, the tumor sections were stained with anti-CD31-biotin mAb.

The test system of series [3] is Colo38 tumors. Description: Colo38 xenograft model in ICR SCID mice (FIG. 4C). It counts as in vivo, mouse. The following applies: Colo38 xenograft (membrane-bound VEGF negative). From the text: (§1) Additional evidence was gathered to show efficacy of in vivo therapy. ICR SCID mice implanted with SKOV-3 cells were compared to ICR SCID mice implanted with Colo38 cells as a control. […] Most of these tumors still retained their sizes before therapy. More importantly, 86% of these mice achieved long-term survival compared with 43% of tumor-bearing mice treated with anti-VEGF mAb only (FIG. 4B).

Series [4] deals with MDA-MB-483, HBL-100, Colo38 cells. The series can be described thus: complement activation (iC3b deposition), flow cytometry, cell lines negative for membrane-bound VEGF. It counts as cell-based, human. Conditions: tumor cell lines negative for membrane-bound VEGF, mouse serum as complement source. Here is the method:
Next, the ability of anti-VEGF mAb to bind surface-bound VEGF and activate complement, which leads to iC3b deposition, was examined. SKOV-3 cells were mixed with anti-VEGF mAb in the presence of a 1:4 dilution of mouse serum (complement source). For every one million tumor cells, a 100 μL volume of diluted mouse serum containing 10 μg/mL working dilution of anti-VEGF mAb was used. Tumor cells were mixed and incubated at 37° C. for 30 min. The cells were washed in ice cold flow cytometry staining buffer and the cell pellet was resuspended in […] diluted detecting antibody. The cells were incubated on ice for 30 min. and washed twice. Propidium iodide was used to exclude dead cells. The results of cell lines MDA-MB-483, HBL-100, SKOV-3 and Colo38 are shown in histograms 26, 28, 30 and 32 of FIG. 1C, respectively. Cells incubated with anti-VEGF mAb in the presence of complement and stained with anti-mouse iC3b-FITC mAb are represented by bold lines. Controls included cells incubated with mouse complement (dotted line) or without mouse complement (filled gray) and then stained with anti-mouse iC3b-FITC mAb.

The subject of series [5] is SKOV-3 cells. The class given is cell-based, human. Here is the method: As described above, β-glucan functions with anti-tumor antibodies to activate complement receptor 3 (CR3) and recruit neutrophils that mediate CR3 (iC3b-receptor)-dependent cytotoxicity of tumors coated with iC3b. […] SKOV-3 cells were incubated with anti-VEGF mAb or anti-Her-2/neu mAb in the presence of human complement. Cells were then washed and co-cultured with human neutrophils (E:T ratio=20:1) in the presence of soluble β-glucan. Cytotoxicity was calculated as in Li et al., J Immunol 177:1661-1669.

Series [6] relates to SKOV-3 tumors. Description: immunohistochemistry of tumor sections: iC3b deposition and neutrophil infiltration (FIG. 5). The class given is in vivo, mouse. The following applies: for neutrophil infiltration in tumors: anti-Gr-1-PE staining of tumor sections; for iC3b deposition in tumors: anti-iC3b-FITC staining of tumor sections. The text has this: Interaction between the complement activation product iC3b and the I-domain of CR3 provides the first signal for CR3 priming. Engagement of β-glucan with the lectin-like domain of CR3 is additionally required for the full activation of CR3. The dual ligation of CR3 leads to neutrophil CR3-dependent cellular cytotoxicity (Li et al., J Immunol 177:1661-1669). Neutrophil trafficking within tumors is also critical for successful combined β-glucan with anti-tumor mAb therapy (Allendorf et al., J Immunol 174:7050-7056). Therefore, immunohistochemistry studies were carried out to examine complement activation and neutrophil infiltration within tumors after treatment with different regimens.
First, the tumor sections from four groups were stained with an anti-iC3b-FITC and anti-VEGF-PE mAbs. […] Second, the tumor sections were stained with anti-Gr-1-PE mAb to detect neutrophil infiltration.

Series [7] deals with SKOV-3 tumors. The series can be described thus: SKOV-3 xenograft model in ICR SCID mice (FIG. 4A, 4B). The class given is in vivo, mouse.
Source text: as §1

In series [1], bevacizumab showed a tumor size reached of 800±250 mm^3. Besides, the tumor microvessel density result in series [2] is on record as “decreased tumor microvessel density”. Further, the tumor burden result in series [3] was “significantly reduced tumor burden”. The “complement activation (iC3b deposition)” value in series [4] was “negative for complement activation”. The substance also yielded a cytotoxicity in series [5] of 0.2%. Moreover, in series [6], the “neutrophil infiltration in tumors” value was “significant neutrophil infiltration” and the “iC3b deposition in tumors” value is recorded as “massive iC3b deposition”. In addition, in series [7], the “mice achieving long-term survival” value turned out to be 43% and the tumor burden entry is “significantly reduced tumor burden”.
For “poly-(1-6)-β-D-glucopyranosyl-(1-3)-β-D-glucopyranose [β-glucan]”, the tumor size reached in series [1] is recorded as 1500±500 mm^3. Moreover, in series [6], the “neutrophil infiltration in tumors” value is “paucity of iC3b deposition and neutrophil infiltration”; the “iC3b deposition in tumors” value is given as “no iC3b deposition”. In addition, in series [7], the tumor burden result is given as “did not show any significant tumor regression”.
